Test [1] deals with rats with heart failure (left coronary artery ligature). As to the kind of experiment: Heart failure induced in rats by ligature of the left coronary artery; compound A, perindopril or both for 12 weeks. The note with it: HF rats; for LVEDPVR: compliance of LV; for LVEDPVR / LVEDP / LVESP / LVESPVR / cardiac output / dP/dtmax / dP/dtmin / shortening fraction (% of the diameter of the LV) / Heart rate / tau: compound A 3 mg/kg, perindopril 0.4 mg/kg; for LVEDPVR / LVEDP / LVESP / LVESPVR / cardiac output / dP/dtmax / dP/dtmin / shortening fraction (% of the diameter of the LV) / tau: 12 weeks; for tau: relaxation time. The class given is in vivo, rat. How it is done: (§1) Heart failure was induced in rats by ligature of the left coronary artery (the control animals undergo an operation but are not ligated), which causes ischaemia of part of the wall of the left ventricle. The animals recuperate for 7 days and then, for 12 weeks, they are given either 3 mg/kg of compound A, or 0.4 mg/kg of perindopril, or perindopril and compound A concomitantly.

For test [2] the test system is unchanged. Description: Same rat heart failure model; ivabradine, perindopril or their association. The test is classed as in vivo. Particulars: HF rats. The method, then:
as §1
This effect on systolic function and diastolic function was then studied using the association of perindopril and a different If current inhibitor, ivabradine.

[3] abbreviates: Table 4B, ivabradine on its own.

Structures are written as SMILES. Marks after values point to notes of the source that are not given here.

As for `CCC[C@H](N[C@@H](C)C(=O)N1[C@H](C(=O)O)C[C@@H]2CCCC[C@@H]21)C(=O)OCC` [perindopril], in test [1], the “effect on compliance of the left ventricle, measured by LVEDPVR (in words)” value is given as “very clearly improved”; the “effect on end diastolic pressure and relaxation time (in words)” value was “clearly improved”; the “effect on systolic function, seen from the LVESPVR (in words)” value is listed as “improves systolic function”; the LVEDPVR is 2.36^† mmHg/RVU. For the same compound, in test [1], the LVEDP was 5.17^† mmHg, the LVESP was determined as 99 mmHg, the LVESPVR is recorded as 16.4^† mmHg/RVU and the cardiac output was 142^† mL/min. Further, in test [1], the dP/dtmax is on record as 5.97 10^3 mmHg/s, the dP/dtmin was 5.11 −10^3 mmHg/s, the “shortening fraction (% of the diameter of the LV)” value is 17.1 % of the diameter of the LV and the tau is 7.31^† ms. In addition, the Heart rate in test [1] (duration of treatment 4 weeks) stood at 388.2 bpm. In test [1] (duration of treatment 12 weeks), this compound yielded a Heart rate of 387.7 bpm. Further, in test [2], the “effect on systolic function (in words)” value is reported as “improves the systolic function”. Besides, in test [2] (Table 4a), the LVEDP is reported as 6.88^† mmHg, the LVEDPVR is recorded as 2.25^† mmHg/RVU, the LVESP is on record as 102^† mmHg and the LVESPVR is on record as 14.5^† mmHg/RVU. Also, in test [2] (Table 4a), the dP/dtmax is listed as 6.08^† 10^3 mmHg/s, the dP/dtmin is recorded as 4.99 −10^3 mmHg/s and the tau was 10.92^† ms.

In the case of `COc1cc2c(cc1OC)CC(=O)N(CCCN(C)C[C@H]1Cc3cc(OC)c(OC)cc31)CC2` [ivabradine, 3-{3-[{[(7S)-3,4-dimethoxybicyclo[4.2.0]octa-1,3,5-trien-7-yl]-methyl}(methyl)amino]propyl}-7,8-dimethoxy-1,3,4,5-tetrahydro-2H-3-benzazepin-2-one], the “effect on diastolic dysfunction (in words)” value in test [2] is reported as “comparable to that of perindopril on its own”. Also, in test [2] (setting [3]), the LVEDPVR was 1.87*^† mmHg/RVU and the LVESPVR is 20.63*^† mmHg/RVU.

Consider `COc1cc2c(cc1OC)CCN(C(=O)CCN(C)C[C@H]1Cc3cc(OC)c(OC)cc31)CC2` [compound A, N-{[(7S)-3,4-dimethoxybicyclo[4.2.0]octa-1,3,5-trien-7-yl]methyl}-3-(7,8-dimethoxy-1,2,4,5-tetrahydro-3H-3-benzazepin-3-yl)-N-methyl-3-oxo-1-propanamine], for which, in test [1], the “effect on compliance of the left ventricle, measured by LVEDPVR (in words)” value was “very clearly improved”; the “effect on end diastolic pressure and relaxation time (in words)” value is reported as “clearly improved”; the “effect on systolic function, seen from the LVESPVR (in words)” value is recorded as “improves systolic function”; the LVEDPVR is on record as 2.70^† mmHg/RVU. Also, in test [1], the LVEDP is 4.89^† mmHg, the LVESP came out at 118 mmHg, the LVESPVR is recorded as 16.1^† mmHg/RVU and the cardiac output is on record as 127 mL/min. In test [1], the dP/dtmax was 6.78 10^3 mmHg/s, the dP/dtmin is 5.87 −10^3 mmHg/s, the “shortening fraction (% of the diameter of the LV)” value is listed as 18.0 % of the diameter of the LV and the tau is 8.37^† ms. Moreover, the Heart rate in test [1] (duration of treatment 4 weeks) is reported as 349.3 bpm. Further, in test [1] (duration of treatment 12 weeks), the Heart rate is given as 342.7^† bpm. In addition, the “effect on heart rate (in words)” value in test [1] (vs untreated HF) was “significant reduction in heart rate”.

Source of the values: patent US20110306598A1, “Use of the association of a sinus node if current inhibitor and an angiotensin-converting enzyme inhibitor in the treatment of heart failure” (LES LABORATOIRES SERVIER, priority 2010, published 2011).
